Reference: patent US9029384B2, “Phosphatidylinositol 3-kinase inhibitors” (Gilead Calistoga LLC, priority 2012, dated 2015)
Where two headings read alike, the source gives them in different places.

What was measured:
basophils = experiment: Basophil activation in human whole blood (Flow2 CAST kit, CD63 positive cells); format: cell-based; details: basophils activated with anti-FcεRI mAb or fMLP, geometric mean
In short: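 Human whole blood (K2-EDTA) preincubated 60 minutes at 37° C with compound serial dilutions or DMSO (0.3% final), then stimulated with anti-FcεRI mAb or fMLP and stained for CD63/CCR3. Percent CD63+ among ≥200 CCR3-high basophils by flow cytometry, normalized to stimulated vehicle as 100%. EC50 from four-parameter fits, geometric means in nM, concentrations corrected for reagent dilution.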

PI3Kδ = biological target: T1, PI3Kδ (Homo sapiens, UniProt O00329); experiment: Enzymatic activity of PI3K isoforms, TR-FRET assay (PIP3 formation); format: biochemical
T1 construct: made in house
In short: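 Recombinant heterodimeric class I PI3K; PIP3 product measured by TR-FRET competition with labelled PIP3 for Eu-GRP-1 PH domain. Reaction 30 min at 25 °C, stopped with 10 mM EDTA.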

[1] = Hepatocyte stability, 1% final DMSO, 2 μM substrate (t1/2^a); format: in vitro ADME; details: human, cryopreserved hepatocytes, TA with 1% final DMSO, 2 μM substrate, samples at 0, 1, 2, 4 hours; read-out: human hepatocyte t½^a
Description: This assay was used to evaluate the metabolic stability of test articles (TA) following incubation in cryopreserved hepatocytes by monitoring parent drug disappearance via […]. The TA with 1% final DMSO concentration was incubated with 1 million hepatocytes/ml at 2 μM substrate in duplicate. The incubation was carried out at 37° C. with 5% CO2 and saturating humidity.

[2] = PI3Kδ, TR-FRET, 2×Km ATP, 10 μM PIP2, read-out: IC50

T1 sequence (O00329 whole entry, canonical isoform): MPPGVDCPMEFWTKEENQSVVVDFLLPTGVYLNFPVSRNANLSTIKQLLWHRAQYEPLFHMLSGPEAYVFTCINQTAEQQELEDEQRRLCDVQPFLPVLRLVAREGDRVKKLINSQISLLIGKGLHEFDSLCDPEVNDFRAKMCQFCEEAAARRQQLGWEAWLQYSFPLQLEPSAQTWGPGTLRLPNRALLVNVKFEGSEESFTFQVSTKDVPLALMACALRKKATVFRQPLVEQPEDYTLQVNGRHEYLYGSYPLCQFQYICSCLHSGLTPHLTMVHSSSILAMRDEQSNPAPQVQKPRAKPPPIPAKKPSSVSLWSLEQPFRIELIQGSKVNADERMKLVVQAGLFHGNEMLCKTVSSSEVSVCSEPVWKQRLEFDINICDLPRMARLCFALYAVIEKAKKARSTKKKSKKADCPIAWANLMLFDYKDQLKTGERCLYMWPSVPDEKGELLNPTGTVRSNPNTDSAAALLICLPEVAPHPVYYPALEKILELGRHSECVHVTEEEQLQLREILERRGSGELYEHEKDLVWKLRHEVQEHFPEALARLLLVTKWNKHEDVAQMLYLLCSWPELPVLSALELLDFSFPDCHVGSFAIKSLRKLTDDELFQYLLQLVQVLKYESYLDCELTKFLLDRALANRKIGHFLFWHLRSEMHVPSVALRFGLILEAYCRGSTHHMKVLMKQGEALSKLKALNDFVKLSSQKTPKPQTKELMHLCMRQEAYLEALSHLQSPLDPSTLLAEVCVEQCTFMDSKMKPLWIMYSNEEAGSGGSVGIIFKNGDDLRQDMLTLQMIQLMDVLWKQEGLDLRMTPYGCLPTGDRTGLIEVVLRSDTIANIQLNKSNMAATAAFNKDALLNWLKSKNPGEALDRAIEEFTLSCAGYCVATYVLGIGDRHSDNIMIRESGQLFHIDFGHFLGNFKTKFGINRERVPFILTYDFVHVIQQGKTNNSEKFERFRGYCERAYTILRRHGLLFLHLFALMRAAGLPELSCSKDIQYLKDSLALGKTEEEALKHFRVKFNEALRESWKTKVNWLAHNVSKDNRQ
T1 sequence (P27986 whole entry partner, canonical isoform): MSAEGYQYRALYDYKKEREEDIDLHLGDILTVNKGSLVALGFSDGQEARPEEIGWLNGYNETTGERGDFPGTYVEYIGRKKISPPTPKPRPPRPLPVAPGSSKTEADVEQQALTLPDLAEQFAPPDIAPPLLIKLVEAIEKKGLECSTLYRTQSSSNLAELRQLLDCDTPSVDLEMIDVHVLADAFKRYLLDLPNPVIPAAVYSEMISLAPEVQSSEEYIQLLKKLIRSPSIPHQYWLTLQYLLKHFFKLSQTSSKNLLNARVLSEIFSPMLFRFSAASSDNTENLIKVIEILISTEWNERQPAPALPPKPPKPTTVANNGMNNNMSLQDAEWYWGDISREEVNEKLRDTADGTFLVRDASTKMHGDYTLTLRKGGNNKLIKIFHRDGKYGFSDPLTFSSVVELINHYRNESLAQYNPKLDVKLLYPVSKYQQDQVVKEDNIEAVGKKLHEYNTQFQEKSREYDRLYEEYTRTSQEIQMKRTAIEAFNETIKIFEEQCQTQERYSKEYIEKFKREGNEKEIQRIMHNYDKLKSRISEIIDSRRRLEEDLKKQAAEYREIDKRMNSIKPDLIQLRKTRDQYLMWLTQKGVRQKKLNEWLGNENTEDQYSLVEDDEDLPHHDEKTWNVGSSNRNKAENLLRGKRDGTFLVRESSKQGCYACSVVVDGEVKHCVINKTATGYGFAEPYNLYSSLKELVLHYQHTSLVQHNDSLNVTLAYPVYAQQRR

Compound	EC50 (basophils; Homo sapiens) [nM]	IC50 (PI3Kδ; [2]) [nM]	half-life at 2 μM [1] [h]	EC50 (basophils) [nM]	IC50 (PI3Kδ) [nM]
CC(Nc1nc(N)nc(N)c1Cl)c1nc2cccc(Cl)c2c(=O)n1-c1ccccc1 (single isomer, unassigned) [Compound 104a]	1 to 10		3 to 6		< 1
Cc1ccc(F)c2c(=O)n(-c3cccc(C#N)c3)c(C(C)Nc3nc(N)nc(N)c3C#N)nc12 (single isomer, unassigned) [Compound 82a]	> 50	10 to 50	6 to 10		
Cc1ccc(F)cc1-n1c(C(C)Nc2nc(N)nc(N)c2C#N)nc2cccc(Cl)c2c1=O (single isomer, unassigned) [Compound 201a-2]		1 to 10	6 to 10	1 to 10	
CC(Nc1nc(N)nc(N)c1C#N)c1nc2cccc(Cl)c2c(=O)n1-c1cc(F)cc(C#N)c1 (single isomer, unassigned) [Compound 20a]	1 to 10	1 to 10	6 to 10		
CC(Nc1nc(N)nc(N)c1C#N)c1nc2cccc(Cl)c2c(=O)n1-c1cc(F)cc(Cl)c1 (single isomer, unassigned) [Compound 43a]	1 to 10	1 to 10	3 to 6		
CCC(Nc1nc(N)nc(N)c1C#N)c1nc2cccc(Cl)c2c(=O)n1-c1cc(F)cc(C(F)F)c1 (single isomer, unassigned) [Compound 66a]	1 to 10	1 to 10	3 to 6		
CCC(Nc1nc(N)nc(N)c1C#N)c1nc2cccc(C(F)F)c2c(=O)n1-c1cc(F)cc(F)c1 (single isomer, unassigned) [Compound 53a]	10 to 50	1 to 10	> 10		
Cc1ccc(F)c2c(=O)n(-c3cc(F)cc(F)c3)c(C(C)Nc3nc(N)nc(N)c3C#N)nc12 (single isomer, unassigned) [Compound 35a]	1 to 10	1 to 10	6 to 10		
CC(Nc1nc(N)nc(N)c1C(N)=O)c1nc2cccc(Cl)c2c(=O)n1-c1cccc(C(F)F)c1 (single isomer, unassigned) [Compound 100a]	1 to 10	1 to 10	1 to 3		

More lines, main results first:

EC50 (basophils; Homo sapiens) [nM]	IC50 (PI3Kδ; [2]) [nM]	half-life at 2 μM [1] [h]	EC50 (basophils) [nM]	Compound	IC50 (PI3Kδ) [nM]
1 to 10	1 to 10	6 to 10		Cc1ccc(F)c2nc(C(C)Nc3nc(N)nc(N)c3C#N)n(-c3cc(F)cc(C#N)c3)c(=O)c12 (single isomer, unassigned) [Compound 31a]	
1 to 10	< 1	1 to 3		Cc1ccc(Cl)c2c(=O)n(-c3cccc(Cl)c3)c(C(C)Nc3nc(N)nc(N)c3C#N)nc12 (single isomer, unassigned) [Compound 5a]	
< 1	1 to 10	1 to 3		COc1cc(F)cc(-n2c(C(C)Nc3nc(N)nc(N)c3C#N)nc3cccc(Cl)c3c2=O)c1 (single isomer, unassigned) [Compound 192a]	
1 to 10	1 to 10	< 1		CC(C)c1cccc(-n2c(C(C)Nc3nc(N)nc(N)c3C#N)nc3cccc(Cl)c3c2=O)c1 (single isomer, unassigned) [Compound 107a]	
> 50	1 to 10	1 to 3		CC(C)CC(Nc1nc(N)nc(N)c1C#N)c1nc2cccc(Cl)c2c(=O)n1-c1cc(F)cc(F)c1 (single isomer, unassigned) [Compound 163a]	
1 to 10	1 to 10	6 to 10		Cc1cccc2nc(C(C)Nc3nc(N)nc(N)c3C#N)n(-c3cc(F)cc(C#N)c3)c(=O)c12 (single isomer, unassigned) [Compound 24a]	
< 1	< 1	6 to 10		CC(Nc1nc(N)nc(N)c1C#N)c1nc2c(Cl)ccc(Cl)c2c(=O)n1-c1ccccc1 (single isomer, unassigned) [Compound 50a]	
1 to 10	< 1	3 to 6		CCC(Nc1nc(N)nc(N)c1C#N)c1nc2cccc(C)c2c(=O)n1-c1cc(F)cc(F)c1 (single isomer, unassigned) [Compound 19a]	
